Test results: ChEMBL document CHEMBL5316339, “Discovery of a Series of Substituted 1H-((1,2,3-Triazol-4-yl)methoxy)pyrimidines as Brain Penetrants and Potent GluN2B-Selective Negative Allosteric Modulators” (J Med Chem, 2023)
pIC50, pKi: −log10 of the molar value. In brackets after ≈: the same amount, converted by molar mass.

Experiments:
[1] = Drug concentration in Sprague-Dawley rat plasma at 10 mg/kg, po measured after 6 hrs; type: ADME, organism-based
[2] = Unbound brain to plasma concentration ratio in Sprague-Dawley rat at 10 mg/kg, po measured after 2 hrs; type: ADME, organism-based; conditions: brain and plasma, read-out: K(p,uu,brain)
[3] = Oral bioavailability in Sprague-Dawley rat at 5 mg/kg measured for 24 hrs by LC-MS/MS analysis; type: ADME, organism-based; conditions: in vivo
[4] = Volume of distribution at steady state in Sprague-Dawley rat at 5 mg/kg, po or 1 mg/kg, iv measured for 24 hrs by LC-MS/MS analysis; type: ADME, organism-based; conditions: in vivo
Cytochrome P450 2D6 = Cytochrome P450 2D6 (Homo sapiens, UniProt P10635); test: Inhibition of CYP2D6 in human liver microsomes incubated for 10 mins by LC-MS/MS analysis; type: ADME, Microsome
[5] = Drug concentration in Sprague-Dawley rat plasma at 10 mg/kg, po measured after 0.5 hrs; type: ADME, organism-based
[6] = biological target: Voltage-gated inwardly rectifying potassium channel KCNH2 (Homo sapiens, UniProt Q12809); test: Displacement of [3H]dofetilide from human ERG expressed in HEK293 cells; type: toxicity, cell-based
[7] = Drug concentration in Sprague-Dawley rat plasma at 10 mg/kg, po measured after 2 hrs; type: ADME, organism-based
[8] = biological target: Glutamate receptor ionotropic, NMDA 2C (Homo sapiens, UniProt Q05586+Q14957); test: Inhibition of human GluN2C receptor by FLIPR assay
[9] = Cmax in Sprague-Dawley rat at 5 mg/kg, po measured for 24 hrs by LC-MS/MS analysis; type: ADME, organism-based; parameters: time 24 hrs, dose 5 mg/kg, route po; conditions: in vivo
Cytochrome P450 2C9 = Cytochrome P450 2C9 (Homo sapiens, UniProt P11712); test: Inhibition of CYP2C9 in human liver microsomes incubated for 10 mins by LC-MS/MS analysis; type: ADME, Microsome
MDR1 (P-gp) = test: Efflux ratio of apparent permeability from basolateral to apical side over apical to basolateral side in MDCK-MDR1 cells at 5 uM incubated for 60 mins by LC-MS/MS analysis; type: ADME, cell-based, Canis lupus familiaris; conditions: dog
Cytochrome P450 3A4 = Cytochrome P450 3A4 (Homo sapiens, UniProt P08684); test: Inhibition of CYP3A4 in human liver microsomes incubated for 10 mins by LC-MS/MS analysis; type: ADME, Microsome
[10] = Drug concentration in Sprague-Dawley rat brain at 10 mg/kg, po measured after 0.5 hrs; type: ADME, organism-based; conditions: read-out: Ct
[11] = Metabolic stability in rat liver microsomes assessed as extraction ratio; type: ADME, Microsome; conditions: read-out: ERH
[12] = biological target: Glutamate receptor ionotropic, NMDA 2A (Homo sapiens, UniProt Q05586+Q12879); test: Inhibition of human GluN2A receptor by FLIPR assay
Brain [13] = test: Ex vivo receptor occupancy at GluN2B receptor in Sprague-Dawley rat brain at 10 mg/kg, po measured after 0.5 hrs by 3 [3H] 1-(azetidin- 1-yl-2[6-(4-fluoro-3-methyl-pheny)pyrrolo[3,2-b]pyridin-1-yl]ethanon based autoradiography relative to control; type: functional
[14] = Plasma protein binding in Sprague-Dawley rat assessed as free fraction; type: ADME, cell-free
[15] = Drug concentration in Sprague-Dawley rat brain assessed as free fraction; type: ADME, tissue-based
[16] = Unbound brain to plasma concentration ratio in Sprague-Dawley rat at 10 mg/kg, po measured after 0.5 hrs; type: ADME, organism-based; conditions: brain and plasma, read-out: K(p,uu,brain)
[17] = Metabolic stability in human liver microsomes assessed as extraction ratio; type: ADME, Microsome; conditions: read-out: ERH
[18] = biological target: Glutamate receptor ionotropic, NMDA 2D (Homo sapiens, UniProt O15399+Q05586); test: Inhibition of human GluN2D receptor by FLIPR assay
Cytochrome P450 1A2 = biological target: T1, Cytochrome P450 1A2 (Homo sapiens, UniProt P05177); test: Inhibition of CYP1A2 in human liver microsomes incubated for 10 mins by LC-MS/MS analysis; type: ADME, Microsome
T1 sequence (P05177 whole entry): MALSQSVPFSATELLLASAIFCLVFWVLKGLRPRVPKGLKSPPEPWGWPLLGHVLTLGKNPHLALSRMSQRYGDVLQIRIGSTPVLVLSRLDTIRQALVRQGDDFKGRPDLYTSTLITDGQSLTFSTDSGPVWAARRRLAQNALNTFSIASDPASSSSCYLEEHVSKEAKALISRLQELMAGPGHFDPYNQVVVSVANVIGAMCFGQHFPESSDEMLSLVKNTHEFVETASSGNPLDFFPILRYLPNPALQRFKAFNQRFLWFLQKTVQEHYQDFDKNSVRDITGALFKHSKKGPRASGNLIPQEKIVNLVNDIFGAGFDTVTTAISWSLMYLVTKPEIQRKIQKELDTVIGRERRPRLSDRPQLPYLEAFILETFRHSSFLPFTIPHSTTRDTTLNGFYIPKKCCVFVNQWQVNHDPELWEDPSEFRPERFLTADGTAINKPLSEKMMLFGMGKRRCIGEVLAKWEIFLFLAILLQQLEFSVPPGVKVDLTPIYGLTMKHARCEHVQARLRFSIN

Brain [19] = test: Ex vivo receptor occupancy at GluN2B receptor in Sprague-Dawley rat brain at 10 mg/kg, po measured after 2 hrs by 3 [3H] 1-(azetidin- 1-yl-2[6-(4-fluoro-3-methyl-pheny)pyrrolo[3,2-b]pyridin-1-yl]ethanon based autoradiography relative to control; type: functional
[20] = biological target: Glutamate receptor ionotropic, NMDA 2B (Rattus norvegicus, UniProt Q00960); test: Displacement of 3-(3H) 1-(azetidin-1-yl)-2-(6- (4-fluoro-3-methyl-phenyl)pyrrolo-[…] pyridin-1yl)ethanone from GluN2B receptor in rat cortical membrane assessed as inhibition constant incubated for 2 hrs under shaking condition by liquid scintillator counter analysis; type: cell membranes, Cortex
Brain [21] = test: Ex vivo receptor occupancy at GluN2B receptor in Sprague-Dawley rat brain at 10 mg/kg, po measured after 6 hrs by 3 [3H] 1-(azetidin- 1-yl-2[6-(4-fluoro-3-methyl-pheny)pyrrolo[3,2-b]pyridin-1-yl]ethanon based autoradiography relative to control; type: functional
Cytochrome P450 2C19 = Cytochrome P450 2C19 (Homo sapiens, UniProt P33261); test: Inhibition of CYP2C19 in human liver microsomes incubated for 10 mins by LC-MS/MS analysis; type: ADME, Microsome
[22] = Thermodynamic solubility in aqueous phosphate buffer at pH 2; type: physicochemical; conditions: read-out: Therm_solubility
Cytochrome P450 2C8 = biological target: T2, Cytochrome P450 2C8 (Homo sapiens, UniProt P10632); test: Inhibition of CYP2C8 in human liver microsomes incubated for 10 mins by LC-MS/MS analysis; type: ADME, Microsome
T2 sequence (P10632 whole entry): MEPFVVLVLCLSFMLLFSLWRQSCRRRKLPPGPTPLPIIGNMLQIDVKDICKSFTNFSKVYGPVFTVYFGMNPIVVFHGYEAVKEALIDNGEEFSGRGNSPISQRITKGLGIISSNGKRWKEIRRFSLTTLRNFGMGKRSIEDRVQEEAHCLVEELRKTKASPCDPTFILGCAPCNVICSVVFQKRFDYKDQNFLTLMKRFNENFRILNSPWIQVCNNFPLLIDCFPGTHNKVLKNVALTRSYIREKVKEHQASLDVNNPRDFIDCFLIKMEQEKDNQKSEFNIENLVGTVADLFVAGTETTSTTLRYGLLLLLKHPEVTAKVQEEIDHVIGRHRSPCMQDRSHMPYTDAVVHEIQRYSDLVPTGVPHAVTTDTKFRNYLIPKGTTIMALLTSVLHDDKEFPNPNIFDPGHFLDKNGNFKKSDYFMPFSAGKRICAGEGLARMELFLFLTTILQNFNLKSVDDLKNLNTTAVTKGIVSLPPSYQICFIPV

[23] = Thermodynamic solubility in aqueous phosphate buffer at pH 7; type: physicochemical; conditions: read-out: Therm_solubility
Hippocampus [24] = test: Ex vivo receptor occupancy at GluN2B receptor in Sprague-Dawley rat hippocampus administered orally and measured after 0.5 hrs by 3-[3H] 1-(azetidin- 1-yl-2[6-(4-fluoro-3-methyl-pheny)pyrrolo[3,2-b]pyridin-1-yl]ethanon based autoradiography; type: functional; conditions: route po
[25] = Drug concentration in Sprague-Dawley rat brain at 10 mg/kg, po measured after 2 hrs; type: ADME, organism-based; conditions: read-out: Ct
[26] = Drug metabolism in human liver microsomes assessed as O-dearylation mediated 1-(4-chloro-3-(difluoromethoxy)phenyl)-1H-1,2,3-triazole-4-carboxylic acid metabolite formation at 0.1 uM in presence of NADPH; type: ADME, Microsome
[27] = Drug concentration in Sprague-Dawley rat plasma at 10 mg/kg, po measured after 0.25 hrs; type: ADME, organism-based
[28] = Unbound brain to plasma concentration ratio in Sprague-Dawley rat at 10 mg/kg, po measured after 0.25 hrs; type: ADME, organism-based; conditions: brain and plasma, read-out: K(p,uu,brain)
Brain [29] = test: Ex vivo receptor occupancy at GluN2B receptor in Sprague-Dawley rat brain at 10 mg/kg, po measured after 0.25 hrs by 3 [3H] 1-(azetidin- 1-yl-2[6-(4-fluoro-3-methyl-pheny)pyrrolo[3,2-b]pyridin-1-yl]ethanon based autoradiography relative to control; type: functional
[30] = Drug metabolism in rat hepatocytes at 0.01 to 0.1 uM incubated for 4 hrs; type: ADME, cell-based, Hepatocyte; conditions: dose 0.01-0.1 µM
[31] = Drug concentration in Sprague-Dawley rat brain at 10 mg/kg, po measured after 0.25 hrs; type: ADME, organism-based; conditions: read-out: Ct
[32] = Drug metabolism in rat liver microsomes at 0.014 to 0.37 uM incubated for 60 mins; type: ADME, Microsome; conditions: 1 h, dose 0.014-0.37 µM
[33] = Drug metabolism in human liver microsomes assessed as O-dearylation mediated (1-(4-chloro-3-(difluoromethoxy)phenyl)-1H-1,2,3-triazol-4-yl)methanol metabolite formation at 0.1 uM in presence of NADPH; type: ADME, Microsome
Hippocampus [34] = test: Ex vivo receptor occupancy at GluN2B receptor in Sprague-Dawley rat brain hippocampus at 0.01 to 3 mg/kg, po measured after 2 hrs by 3 [3H] 1-(azetidin- 1-yl-2[6-(4-fluoro-3-methyl-pheny)pyrrolo[3,2-b]pyridin-1-yl]ethanon based autoradiography relative to control; type: functional; conditions: dose 0.01-3 mg/kg
[35] = biological target: Glutamate NMDA receptor; GRIN1/GRIN2B (Homo sapiens, UniProt Q05586+Q13224); test: Negative allosteric modulation of human GluN1A/GluN2B receptor expressed in T-REX-CHO cells preincubated for 5 mins followed by glutamate and glycine addition and measured after 5 mins by FLIPR assay; type: cell-based

Glutamate receptor ionotropic, NMDA 2D, sequence (O15399 whole entry, one chain of several): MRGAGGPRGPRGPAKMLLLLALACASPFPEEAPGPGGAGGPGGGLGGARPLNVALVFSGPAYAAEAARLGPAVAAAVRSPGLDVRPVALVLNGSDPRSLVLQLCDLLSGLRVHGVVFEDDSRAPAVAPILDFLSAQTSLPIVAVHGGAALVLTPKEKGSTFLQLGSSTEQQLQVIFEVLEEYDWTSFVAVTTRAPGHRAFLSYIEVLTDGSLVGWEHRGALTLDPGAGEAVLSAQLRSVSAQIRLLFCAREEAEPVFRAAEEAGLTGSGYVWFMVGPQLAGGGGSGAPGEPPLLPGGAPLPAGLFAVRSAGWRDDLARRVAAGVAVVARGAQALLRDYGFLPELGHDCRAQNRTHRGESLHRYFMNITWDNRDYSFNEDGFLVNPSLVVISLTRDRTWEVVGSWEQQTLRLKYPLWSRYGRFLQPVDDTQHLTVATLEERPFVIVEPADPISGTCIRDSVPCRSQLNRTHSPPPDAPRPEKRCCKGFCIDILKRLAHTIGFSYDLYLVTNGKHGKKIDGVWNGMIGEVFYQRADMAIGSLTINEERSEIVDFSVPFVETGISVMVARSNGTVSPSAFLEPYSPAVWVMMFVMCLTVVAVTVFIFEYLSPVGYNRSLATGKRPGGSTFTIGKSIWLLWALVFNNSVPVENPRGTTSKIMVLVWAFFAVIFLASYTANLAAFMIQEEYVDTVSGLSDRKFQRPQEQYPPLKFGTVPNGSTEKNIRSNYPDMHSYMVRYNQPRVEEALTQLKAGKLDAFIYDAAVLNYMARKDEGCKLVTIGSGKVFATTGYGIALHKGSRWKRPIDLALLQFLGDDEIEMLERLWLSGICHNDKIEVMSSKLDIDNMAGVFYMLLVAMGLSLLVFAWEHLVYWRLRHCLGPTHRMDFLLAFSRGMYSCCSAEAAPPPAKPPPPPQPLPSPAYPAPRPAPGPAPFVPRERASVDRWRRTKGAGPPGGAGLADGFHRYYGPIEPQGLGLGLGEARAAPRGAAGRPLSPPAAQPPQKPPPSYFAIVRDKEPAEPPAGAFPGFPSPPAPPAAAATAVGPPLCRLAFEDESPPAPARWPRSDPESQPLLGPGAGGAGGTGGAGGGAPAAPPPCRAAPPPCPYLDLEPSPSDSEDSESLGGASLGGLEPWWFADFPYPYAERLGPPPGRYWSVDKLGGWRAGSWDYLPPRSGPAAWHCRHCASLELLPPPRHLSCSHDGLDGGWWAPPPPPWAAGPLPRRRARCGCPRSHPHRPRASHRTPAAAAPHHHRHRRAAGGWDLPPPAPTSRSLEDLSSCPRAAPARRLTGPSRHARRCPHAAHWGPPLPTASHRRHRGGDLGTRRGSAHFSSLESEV
Glutamate receptor ionotropic, NMDA 2B, sequence (Q00960 whole entry): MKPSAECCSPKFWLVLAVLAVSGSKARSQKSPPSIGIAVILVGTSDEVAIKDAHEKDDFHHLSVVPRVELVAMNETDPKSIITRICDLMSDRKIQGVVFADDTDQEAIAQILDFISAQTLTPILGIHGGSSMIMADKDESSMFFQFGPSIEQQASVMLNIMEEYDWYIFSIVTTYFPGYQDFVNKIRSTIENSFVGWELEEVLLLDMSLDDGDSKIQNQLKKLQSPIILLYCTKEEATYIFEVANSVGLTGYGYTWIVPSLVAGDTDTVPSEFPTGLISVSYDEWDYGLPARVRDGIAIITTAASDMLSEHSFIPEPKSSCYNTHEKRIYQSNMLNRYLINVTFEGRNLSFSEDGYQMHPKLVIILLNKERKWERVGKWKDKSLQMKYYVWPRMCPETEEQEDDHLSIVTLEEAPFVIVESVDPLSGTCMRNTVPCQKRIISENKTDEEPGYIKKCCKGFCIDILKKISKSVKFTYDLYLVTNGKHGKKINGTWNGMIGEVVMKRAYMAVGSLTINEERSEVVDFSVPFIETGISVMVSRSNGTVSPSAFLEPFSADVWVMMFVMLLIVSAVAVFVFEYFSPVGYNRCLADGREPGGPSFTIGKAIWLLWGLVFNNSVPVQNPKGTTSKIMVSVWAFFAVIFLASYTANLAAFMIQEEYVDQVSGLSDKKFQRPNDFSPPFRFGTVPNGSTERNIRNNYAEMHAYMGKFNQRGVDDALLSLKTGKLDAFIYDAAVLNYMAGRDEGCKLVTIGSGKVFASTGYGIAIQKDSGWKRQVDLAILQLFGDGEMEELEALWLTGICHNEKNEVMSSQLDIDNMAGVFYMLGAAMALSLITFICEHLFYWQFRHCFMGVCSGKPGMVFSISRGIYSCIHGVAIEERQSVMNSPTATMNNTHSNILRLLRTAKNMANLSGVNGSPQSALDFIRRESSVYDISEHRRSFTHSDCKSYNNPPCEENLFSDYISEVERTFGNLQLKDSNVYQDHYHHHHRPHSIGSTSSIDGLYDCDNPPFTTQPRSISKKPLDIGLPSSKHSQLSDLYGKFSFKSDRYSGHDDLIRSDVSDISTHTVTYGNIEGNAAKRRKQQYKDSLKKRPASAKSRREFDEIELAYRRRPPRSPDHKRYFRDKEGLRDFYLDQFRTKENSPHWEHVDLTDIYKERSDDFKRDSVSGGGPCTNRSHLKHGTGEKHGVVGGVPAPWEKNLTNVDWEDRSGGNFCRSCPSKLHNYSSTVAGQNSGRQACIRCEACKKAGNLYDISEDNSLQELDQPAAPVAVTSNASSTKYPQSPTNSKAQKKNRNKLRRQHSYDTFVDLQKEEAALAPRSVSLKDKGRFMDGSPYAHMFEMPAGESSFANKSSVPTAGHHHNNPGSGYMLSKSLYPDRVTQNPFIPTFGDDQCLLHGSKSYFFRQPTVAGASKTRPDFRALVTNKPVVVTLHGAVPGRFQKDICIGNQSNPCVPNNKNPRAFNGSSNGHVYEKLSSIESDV
Cytochrome P450 2D6, sequence (P10635 whole entry): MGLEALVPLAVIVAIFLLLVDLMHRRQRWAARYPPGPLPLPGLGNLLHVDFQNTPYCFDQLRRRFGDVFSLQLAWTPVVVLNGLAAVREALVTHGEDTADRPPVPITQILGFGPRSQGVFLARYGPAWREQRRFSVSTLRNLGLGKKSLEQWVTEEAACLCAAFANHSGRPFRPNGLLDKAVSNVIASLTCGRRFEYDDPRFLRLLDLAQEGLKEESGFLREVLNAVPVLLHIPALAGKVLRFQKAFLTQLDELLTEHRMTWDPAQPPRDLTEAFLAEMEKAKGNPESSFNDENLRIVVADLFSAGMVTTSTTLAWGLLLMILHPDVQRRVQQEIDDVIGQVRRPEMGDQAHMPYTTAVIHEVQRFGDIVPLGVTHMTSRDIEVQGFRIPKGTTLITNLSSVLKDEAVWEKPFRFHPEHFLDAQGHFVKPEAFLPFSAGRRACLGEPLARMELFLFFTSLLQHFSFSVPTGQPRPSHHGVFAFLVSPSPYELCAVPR
Glutamate receptor ionotropic, NMDA 2A, sequence (Q12879 whole entry, one chain of several): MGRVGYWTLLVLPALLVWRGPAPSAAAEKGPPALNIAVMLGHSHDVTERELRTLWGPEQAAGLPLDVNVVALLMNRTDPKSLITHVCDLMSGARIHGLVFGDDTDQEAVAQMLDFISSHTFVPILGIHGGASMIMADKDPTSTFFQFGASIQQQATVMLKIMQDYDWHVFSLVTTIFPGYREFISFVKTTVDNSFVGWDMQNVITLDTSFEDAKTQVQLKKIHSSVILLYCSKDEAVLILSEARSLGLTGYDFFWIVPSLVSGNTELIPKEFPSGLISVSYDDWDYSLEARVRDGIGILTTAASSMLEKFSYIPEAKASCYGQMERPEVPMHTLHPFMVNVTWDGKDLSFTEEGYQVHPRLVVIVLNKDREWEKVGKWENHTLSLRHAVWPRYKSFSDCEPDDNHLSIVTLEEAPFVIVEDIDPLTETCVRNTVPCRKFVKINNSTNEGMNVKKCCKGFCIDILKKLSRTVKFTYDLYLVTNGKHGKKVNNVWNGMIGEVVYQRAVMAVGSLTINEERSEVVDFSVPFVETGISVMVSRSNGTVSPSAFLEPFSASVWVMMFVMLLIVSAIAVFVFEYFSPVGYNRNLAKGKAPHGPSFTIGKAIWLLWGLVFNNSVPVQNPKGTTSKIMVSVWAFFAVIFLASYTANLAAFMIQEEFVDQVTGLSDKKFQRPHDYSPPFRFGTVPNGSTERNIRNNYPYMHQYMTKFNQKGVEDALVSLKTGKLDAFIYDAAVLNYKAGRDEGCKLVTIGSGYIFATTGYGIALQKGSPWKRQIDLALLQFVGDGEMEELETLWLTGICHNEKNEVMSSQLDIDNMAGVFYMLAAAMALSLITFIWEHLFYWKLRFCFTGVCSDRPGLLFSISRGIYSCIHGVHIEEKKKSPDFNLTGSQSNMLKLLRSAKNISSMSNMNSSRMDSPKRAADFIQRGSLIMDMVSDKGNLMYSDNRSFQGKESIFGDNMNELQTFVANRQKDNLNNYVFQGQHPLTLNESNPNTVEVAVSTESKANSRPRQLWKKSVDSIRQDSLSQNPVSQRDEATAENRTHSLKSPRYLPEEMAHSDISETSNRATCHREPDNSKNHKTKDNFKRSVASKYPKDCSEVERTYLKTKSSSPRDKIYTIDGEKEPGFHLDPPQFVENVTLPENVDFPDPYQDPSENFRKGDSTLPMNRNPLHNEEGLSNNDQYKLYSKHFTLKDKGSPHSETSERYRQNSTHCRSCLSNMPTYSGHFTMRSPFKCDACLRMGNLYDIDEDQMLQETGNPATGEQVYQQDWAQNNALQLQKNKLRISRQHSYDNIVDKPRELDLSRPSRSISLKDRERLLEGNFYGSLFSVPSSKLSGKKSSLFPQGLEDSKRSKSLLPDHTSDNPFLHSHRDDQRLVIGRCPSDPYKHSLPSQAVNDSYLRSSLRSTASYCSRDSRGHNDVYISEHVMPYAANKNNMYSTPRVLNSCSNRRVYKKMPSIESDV

Row | SMILES | Kp uu at 2 h [2] | bioavailability [3] | Vdss [4] | pIC50 (Cytochrome P450 2D6) | concentration at 0.5 h [5] | pIC50 [6] | concentration at 2 h [7] | pIC50 [8] | Cmax [9] | pIC50 (Cytochrome P450 2C9) | efflux ratio at 1 h, 5 µM (MDR1 (P-gp)) | concentration at 0.5 h [10] | pIC50 [12] | Occ (Brain [13]) | fraction unbound [14] | fraction unbound [15] | Kp uu at 0.5 h [16] | pIC50 [18] | pIC50 (Cytochrome P450 1A2) | Occ (Brain [19]) | also measured
1 | COCc1ccnc(OCc2cn(-c3ccc(F)c(OC(F)F)c3)nn2)n1 | 0.76 | 42% | 0.4 L/kg | < 5.00 | 1980 ng/mL | < 5.00 | 235 ng/mL | < 5.00 | 1630 ng/mL | < 5.00 | 1.1 | 340 ng/g | < 5.00 | 77% | 0.0236 | 0.0882 | 0.65 | < 5.00 | < 5.00 | 54% | concentration at 6 h [1]: 6.7 ng/mL; pIC50 (Cytochrome P450 3A4): < 5.00; hepatic extraction ratio [11]: 0.6; hepatic extraction ratio [17]: 0.47; pKi [20]: 7.49; Occ (Brain [21]): 8%; pIC50 (Cytochrome P450 2C19): < 5.00; solubility thermodynamic [22]: 280 µM (≈ 107 µg/mL); pIC50 (Cytochrome P450 2C8): < 5.00; solubility thermodynamic [23]: 260 µM (≈ 99.1 µg/mL); ED50 (Hippocampus [24]): 1.7 mg/kg; concentration at 2 h [25]: 47 ng/g
2 | FC(F)Oc1cc(-n2cc(COc3ncccn3)nn2)ccc1Cl | 0.72 | 78% | 0.51 L/kg | < 5.00 | 5120 ng/mL | < 5.00 | 8650 ng/mL | < 5.00 | 808 ng/mL | < 5.00 | 1 | 1920 ng/g | < 5.00 | 92% | 0.024 | 0.051 | 0.78 | < 5.00 | < 5.00 | 85% | Drug metabolism [26]: Metabolite_Detected; concentration at 0.25 h [27]: 3040 ng/mL; Kp uu at 0.25 h [28]: 0.91; Occ (Brain [29]): 71%; Drug metabolism [30]: Metabolite_Detected; concentration at 0.25 h [31]: 1290 ng/g; Drug metabolism [32]: Metabolite_Detected; Drug metabolism [33]: Metabolite_Detected; pKi [20]: 7.03; Occ (Hippocampus [34]): <10%; pIC50 (Cytochrome P450 2C19): < 5.00; pIC50 (Cytochrome P450 2C8): < 5.00; concentration at 2 h [25]: 3010 ng/g; pIC50 [35]: 7.96
